Data as given in US6753310B1, “Neovascular-specific peptides” (Otsuka Pharmaceutical Co., Ltd., priority 1998, dated 2004).
Where no end group is shown, it is not given here.

What was measured:
[1] = tested on: B16BL6 melanoma tumor tissue; assay: Competitive inhibition experiment using the respective phages and synthetic 8-residue or 5-residue peptides; assay type: in vivo, C57BL/6 mice; settings: for cross reactivity between phages / inhibitory activity compared with the 15-residue synthetic peptides / inhibition of phage accumulation by 8-residue synthetic peptides: FIG. 1; for inhibition of phage accumulation by 8-residue synthetic peptides: phages expressing the corresponding 15-residue peptides (Nos. 5 and 6); for inhibition of phage accumulation in tumor by 5-residue synthetic peptides: FIG. 2, SEQ ID NO:15 with phage No. 5, SEQ ID NO:16 with phage No. 6
Method: (§1) Thus, 10 days after implantation of B16BL6 melanoma (1×10^6 cells) into five-week-old C57BL/6 mice (obtained from Japan SLC), a mixed solution (0.2 ml) of 0.25 μmol of one of the above synthetic peptides and the respective phage (1×10^8 colony forming units) was administered into the tail vein of each tumor-bearing mouse under anesthesia, and the colony forming units of the phage accumulated in the tumor tissue were counted in a similar manner as mentioned above.
Using a similar method as described above under (2) and using the four short-chain peptides (SEQ ID NO:13 to 16) obtained as mentioned above under (2) in lieu of the synthetic peptides (SEQ ID NO:5 and 6), the synthetic peptides and the respective phages were administered and colony forming units for the phages accumulated in the tumor tissue were counted, and the short-chain synthetic peptides were evaluated for their inhibitory effect on phage accumulation. In a control group,synthetic peptide-free phage solutions (1×10^8 colony forming units) were administered.
In each figure, the ordinate denotes the phase accumulation percentage (%) and the abscissa denotes the phage number. In FIG. 1, the open bar is for the group (control group) given the phage alone without administration of any synthetic peptide, the shaded bar is for the group given the short-chain synthetic peptide shown in SEQ ID NO:13 and the closed bar is for the group given the short-chain synthetic peptide shown in SEQ ID NO:14.
In FIG. 2, the open bar is for the group (control group) given the phage alone without administration of any synthetic peptide, the closed bar is for the group given the short-chain peptide shown in SEQ ID NO:15 (where phage No. 5 was used) and the shaded bar is for the group given the short-chain peptide shown in SEQ ID NO:16 (where phage No. 6 was used).

Meth A sarcoma = assay: Tumor growth inhibition (tumor volume) in solid tumor-bearing mice, subcutaneous administration; assay type: in vivo, BALB/c mice; settings: for antitumor activity (tumor volume) / order of intensities of the antitumor activity: FIG. 10; for tumor growth inhibiting effect (tumor volume): FIG. 3, days 1 to 11, vs distilled water
Method: Solid tumor-bearing mice were prepared by subcutaneously administering 0.2 ml of Meth A sarcoma cells (5×10^6 cells/ml) into the left flank of five-week-old BALB/c male mice (Japan SLC). After 6 to 10 days from sarcoma implantation, when the diameter of the post-implantation tumor in tumor-bearing mice arrived at 4 mm was taken as day 1 and, on days 1 to 11, distilled water (D.W.) as a control or 20 mg/kg/day of each of the above dendrimers (1) to (3) was subcutaneously administered for 11 consecutive days (4 mice were used in each group).
The antitumor effect of each dendrimer peptide was evaluated 6 days after implantation and thereafter by examining the tumor growth, the body weight change and the survival time (days) as an indicator of side effect. At the same time, the minor axis and major axis of each tumor were measured and the tumor volume was calculated according to the formula shown below.
Tumor volume=0.4×a×b^2 (a: major axis, b: minor axis)
Doses of 10 mg/kg×twice/day and 20 mg/kg×twice/day of the dendrimer peptide derived from the peptide of SEQ ID NO:1 as synthesized in Example 4 (1) and a dose of 20 mg/kg×twice/day of a dendrimer peptide (SEQ ID NO:18) derived from a peptide resulting from replacement of an arbitrary sequence for the sequence shown in SEQ ID NO:1, and distilled water (DW) as a control were subcutaneously administered to mice on days 1 to 10 after tumor cell implantation according to the method of Example 4 (2), and the tumor growth inhibiting activities were examined. Four to six mice per group were subjected to the experiment. The results obtained are shown in FIG. 5 in the same manner as in FIG. 3 (ordinate: tumor volume (cm^3), abscissa: days after tumor cell implantation (days)).
The three short-chain peptides synthesized and physiological saline as a control were respectively administered subcutaneously to mice on days 1 to 10 following tumor cell implantation according to the method of Example 4 (2), and the tumor growth inhibiting activities were examined. The results obtained are shown in FIG. 6 in the same manner as in FIG. 3.
(§2) A dose of 20 mg/kg/day of each of the peptides synthesized in the above manner or distilled water (DW) as a control was subcutaneously administered to mice on days 4 to 9 after tumor cell implantation according to the method of Example 4 (2), and the tumor growth inhibiting activities were examined. Three to five mice per group were used in the experiment. The results are shown in FIG. 7 in the same manner as in FIG. 3.
as §2, with “or physiological saline” for “or distilled water (DW)”, “days 1” for “days 4”, “to 10” for “to 9”, “examined. Four or” for “examined. Three to”, “FIG. 8” for “FIG. 7”
as §2, with “water” for “water (DW)”, “days 1” for “days 4”, “to 10” for “to 9”, “examined. Five or six” for “examined. Three to five”, “FIG. 9” for “FIG. 7”
as §2, with “water or physiological saline” for “water (DW)”, “days 1” for “days 4”, “to 10” for “to 9”, “examined. Five or six” for “examined. Three to five”, “FIG. 10 (results with the peptides of SEQ ID NO:28-32) and FIG. 11 (results with the peptides of SEQ ID NO:33-35)” for “FIG. 7”, “3. […]” for “3.”

[2] = tested on: B16BL6 melanoma tumor tissue; assay: Competitive inhibition experiment using the respective phages and synthetic 15-residue peptides; assay type: in vivo, C57BL/6 mice; settings: for % Dose/100 mg tissue: tail vein; for inhibitory activity against accumulation of phages Nos. 5 and 6: synthetic peptides with common sequence WRP
Method: The synthetic peptides having the amino acid sequences shown in SEQ ID NO:1, 5 and 6 were respectively administered simultaneously with the phages No. 1, No. 5 and No. 6 in a similar manner as in Example 1 (5). Each peptide was synthesized as in Example 2.
as §1
In a control group, synthetic peptide-free phage solutions (1×10^8 colony forming units) were administered.
Phages accumulated in neovascular tissues in tumor tissues were counted through colony formation, and each synthetic peptide was evaluated for its inhibitory effect on phage accumulation using, as a reference value, the ratio of accumulation of the peptide-expressing phage in tumor without simultaneous administration of the synthetic peptide.

[3] = 20 mg/kg/day subcutaneously, days 1 to 10
[4] = FIG. 6, subcutaneously, days 1 to 10, vs physiological saline
[5] = accumulation of phage No. 1 (1×10^8 cfu) co-administered with 0.25 μmol synthetic peptide
[6] = accumulation of phage No. 5 (1×10^8 cfu) co-administered with 0.25 μmol synthetic peptide
[7] = accumulation of phage No. 6 (1×10^8 cfu) co-administered with 0.25 μmol synthetic peptide
[8] = inhibition of phage No. 1 accumulation in tumor by 0.25 μmol synthetic peptide
[9] = inhibition of phage No. 5 accumulation in tumor by 0.25 μmol synthetic peptide
[10] = inhibition of phage No. 6 accumulation in tumor by 0.25 μmol synthetic peptide

SEQ ID NO: 13: 8-Residue peptide comprising positions 1 to 8 of SEQ ID NO: 5 (DRWRPALP; phage library)
cross reactivity between phages [1]: showed cross reactivity
inhibitory activity compared with the 15-residue synthetic peptides [1]: higher in inhibitory activity than the 15-resiude synthetic peptides
inhibition of phage accumulation by 8-residue synthetic peptides [1]: inhibited the accumulation of the phages

Trp-Arg-Pro (WRP; phage library) [SEQ ID NO: 32]
antitumor activity (tumor volume) (Meth A sarcoma; [3]): has antitumor activity
order of intensities of the antitumor activity (Meth A sarcoma; [3]): peptide of SEQ ID NO:28=peptide of SEQ ID NO:29>peptide of SEQ ID NO:30=peptide of SEQ ID NO:31>peptide of SEQ ID NO:32

RWRPA (RWRPA-NH2) [SEQ ID NO: 15]
inhibition of phage accumulation in tumor by 5-residue synthetic peptides [1]: inhibit likewise the accumulation in tumor of the phages

SEQ ID NO: 30: 4-Residue peptide comprising positions 3 to 12 of SEQ ID NO: 5 (WRPA; phage library)
antitumor activity (tumor volume) (Meth A sarcoma; [3]): has antitumor activity
order of intensities of the antitumor activity (Meth A sarcoma; [3]): peptide of SEQ ID NO:28=peptide of SEQ ID NO:29>peptide of SEQ ID NO:30=peptide of SEQ ID NO:31>peptide of SEQ ID NO:32

APRPG (APRPG-NH2) [SEQ ID NO: 17]
tumor growth inhibiting activity (tumor volume) (Meth A sarcoma; [4]): tendency toward inhibition of tumor growth

ASSSYPLIHWRPWAR (phage library) [SEQ ID NO: 6]
% Dose/100 mg tissue [2, 5]: 5.92 × 10^−3 % Dose/100 mg tissue
% Dose/100 mg tissue [2, 6]: 3.61 × 10^−3 % Dose/100 mg tissue
% Dose/100 mg tissue [2, 7]: 6.43 × 10^−3 % Dose/100 mg tissue
Accumulation inhibition % [2, 8]: 55%
Accumulation inhibition % [2, 9]: 76%
Accumulation inhibition % [2, 10]: 44%
inhibitory activity against accumulation of phages Nos. 5 and 6 [2]: crosswise inhibitory activity

DRWRPALPVVLFPLH (phage library) [SEQ ID NO: 5]
% Dose/100 mg tissue [2, 5]: 6.36 × 10^−3 % Dose/100 mg tissue
% Dose/100 mg tissue [2, 6]: 5.08 × 10^−3 % Dose/100 mg tissue
% Dose/100 mg tissue [2, 7]: 6.60 × 10^−3 % Dose/100 mg tissue
Accumulation inhibition % [2, 8]: 52%
Accumulation inhibition % [2, 9]: 66%
Accumulation inhibition % [2, 10]: 43%
inhibitory activity against accumulation of phages Nos. 5 and 6 [2]: crosswise inhibitory activity
tumor growth inhibiting activity (tumor volume) (Meth A sarcoma; FIG. 7, 20 mg/kg/day subcutaneously, days 4 to 9): have tumor growth inhibiting activity

PRPGAPLAGSWPGTS (phage library) [SEQ ID NO: 1]
% Dose/100 mg tissue [2, 5]: 5.95 × 10^−3 % Dose/100 mg tissue
% Dose/100 mg tissue [2, 6]: 1.35 × 10^−2 % Dose/100 mg tissue
% Dose/100 mg tissue [2, 7]: 1.14 × 10^−2 % Dose/100 mg tissue
Accumulation inhibition % [2, 8]: 55%
Accumulation inhibition % [2, 9]: 9%

(DRWRPALPVVLFPLH)8-Lys4-Lys2-Lys-βAla (also: octameric lysine dendrimer (Lys4-Lys2-Lys-βAla core), 8 copies)
tumor growth inhibiting effect (tumor volume) (Meth A sarcoma; 20 mg/kg/day subcutaneously): marked tumor growth inhibiting effects

(PRPGAPLAGSWPGTS)8-Lys4-Lys2-Lys-βAla (also: octameric lysine dendrimer (Lys4-Lys2-Lys-βAla core), 8 copies)
tumor growth inhibiting effect (tumor volume) (Meth A sarcoma; 20 mg/kg/day subcutaneously): marked tumor growth inhibiting effects
tumor growth inhibiting activity (tumor volume) (Meth A sarcoma; FIG. 5, 10 and 20 mg/kg×twice/day subcutaneously, days 1 to 10): dose-dependent tumor growth inhibiting activity

SEQ ID NO: 29: 4-Residue peptide comprising positions 9 to 12 of SEQ ID NO: 6 (HWRP; phage library)
antitumor activity (tumor volume) (Meth A sarcoma; [3]): has antitumor activity
order of intensities of the antitumor activity (Meth A sarcoma; [3]): peptide of SEQ ID NO:28=peptide of SEQ ID NO:29>peptide of SEQ ID NO:30=peptide of SEQ ID NO:31>peptide of SEQ ID NO:32

(ASSSYPLIHWRPWAR)8-LYs4-Lys2-Lys-βAla (also: octameric lysine dendrimer (Lys4-Lys2-Lys-βAla core), 8 copies)
tumor growth inhibiting effect (tumor volume) (Meth A sarcoma; 20 mg/kg/day subcutaneously): marked tumor growth inhibiting effects

HWRPW (HWRPW-NH2) [SEQ ID NO: 16]
inhibition of phage accumulation in tumor by 5-residue synthetic peptides [1]: inhibit likewise the accumulation in tumor of the phages

SEQ ID NO: 28: 4-Residue peptide comprising positions 2 to 5 of SEQ ID NO: 5 (RWRP; phage library)
antitumor activity (tumor volume) (Meth A sarcoma; [3]): has antitumor activity
order of intensities of the antitumor activity (Meth A sarcoma; [3]): peptide of SEQ ID NO:28=peptide of SEQ ID NO:29>peptide of SEQ ID NO:30=peptide of SEQ ID NO:31>peptide of SEQ ID NO:32

SEQ ID NO: 19: 12-Residue peptide containing positions 1 to 8 of SEQ ID NO: 1 (ADGAPRPGAPLA; phage library)
tumor growth inhibiting activity (tumor volume) (Meth A sarcoma; [4]): tendency toward inhibition of tumor growth

SEQ ID NO: 31: 4-Residue peptide comprising positions 10 to 13 of SEQ ID NO: 6 (WRPW; phage library)
antitumor activity (tumor volume) (Meth A sarcoma; [3]): has antitumor activity
order of intensities of the antitumor activity (Meth A sarcoma; [3]): peptide of SEQ ID NO:28=peptide of SEQ ID NO:29>peptide of SEQ ID NO:30=peptide of SEQ ID NO:31>peptide of SEQ ID NO:32

SEQ ID NO: 14: 8-Residue peptide comprising positions 8 to 15 of SEQ ID NO: 6 (IHWRPWAR; phage library)
cross reactivity between phages [1]: showed cross reactivity
inhibitory activity compared with the 15-residue synthetic peptides [1]: higher in inhibitory activity than the 15-resiude synthetic peptides
inhibition of phage accumulation by 8-residue synthetic peptides [1]: inhibited the accumulation of the phages
